Experimental data as given in patent US11311613B2, “Development of agonist epitopes of the human papillomavirus” (priority 2016, dated 2022).
Entries after “also recorded” stand apart in the source; their conditions may differ. Read-outs that look alike come from different tables or passages of the source.

Experiments:
CTL (T cells) = assay: IFN-γ production by CTL stimulated by autologous B cells pulsed with corresponding peptide; type: cell-based, human; parameters: key to IFN-γ: + denotes a greater level than the native epitope; = denotes the same level as the native epitope; − denotes a lower level than the native epitope; conditions: for interferon production (in words): T cells stimulated by peptide-pulsed autologous B cells
Excerpt: Autologous B cells were pulsed with each native and agonist E6 peptides to stimulate production of interferon by T cells.
Autologous B cells were pulsed with each native and agonist E7 peptides to stimulate production of interferon by T cells.

[1] = tested on: CaSki cervical carcinoma cell line (HPV16 E6 and E7 positive HLA-A2 positive); assay: Lysis of CaSki tumor cells by peptide-specific CTLs; type: cell-based, human; parameters: key to Lysis: + denotes a greater level than the native epitope; = denotes the same level as the native epitope; − denotes a lower level than the native epitope; conditions: for % specific lysis (SD), CaSki (HLA-A2+ HPV E6+ and E7+): CTLs at IVS5, effector-to-target ratio 25:1; for Lysis: level compared with the native epitope; for lysis of CaSki cervical carcinoma cells (in words): compared to T cells generated with the native epitope counterpart
Excerpt: (§1) HPV-specific T cells were generated using infection of dendritic cells (DCs) with Ad-HPV followed by stimulation of the T cells with each agonist and native peptide. In particular, DCs were infected with Ad5 HPV at 20,000 MOI. Infected DCs were used to generate specific CTLs using autologous PBMC. Autologous DCs were used as APCs for three in vitro stimulations (IVS). Autologous peptide-pulsed B cells were used to re-stimulate antigen-specific CTLs for two additional IVS. CTLs were used at IVS5.
(§2) Results are expressed in % specific lysis (SD). Effector-to-target ratio used was 25:1. CTLs were established from a normal HLA-A2 donor. CaSki is a cervical carcinoma cell line (HPV16 E6 and E7 positive HLA-A2 positive). ASPC-1 is a pancreatic cancer cell line (HPV16 E6 and E7 negative HLA-A2 negative).

[2] = tested on: ASPC-1 pancreatic cancer cell line (HPV16 E6 and E7 negative HLA-A2 negative); assay: Lysis of ASPC-1 control cells by peptide-specific CTLs; type: cell-based, human; conditions: CTLs at IVS5, effector-to-target ratio 25:1; for % specific lysis (SD), ASPC-1 (HLA-A2neg HPV E6neg and E7neg): Table 4; for % specific lysis (SD), ASPC-1: Table 5
Excerpt: as §1, §2
(§3) Results are expressed in % specific lysis (SD). Effector-to-target ratio used was 25:1. CTLs were established from a normal HLA-A2 donor. HN-4 and HN-12 cells are head and neck squamous carcinoma cell lines (HLA-A2 positive). ASPC-1 is a pancreatic cancer cell line (HPV16 E6 and E7 negative HLA-A2 negative).

HLA-A2 molecules = target: T1, HLA-A2 molecules (Homo sapiens, UniProt P04439, D140Y/D185E/D98H/E176V/E277Q/G131W/G231S/I119V/I121R/I166T/I218V/L300P/L318F/N151K/N90K/P208A/P217A/Q86G/Q94H/R138H/R169H/T345S); assay: T2A2 binding of HPV-16 E6/E7 peptides to HLA-A2; parameters: T2A2 Binding: unit not given here
T1 construct: endogenous in cells; host or cells: T2A2 cells (T2 cell line expressing HLA-A2; only the column head names it)

[3] = tested on: HPV-specific T cell lines; assay: IFN-γ production by HPV-specific T cell lines stimulated with Ad5-infected human dendritic cells; type: cell-based; conditions: for activation of T cells directed against the epitope (in words): human DCs infected with Ad-5[E1,E2b^neg]HPV
Procedure: Human DC (6 day culture in IL-4 and GM-CSF) were infected with Ad5 [E1,E2b]-HPV vector and Ad5 [E1,E2b]-Null at 1×10^5/well (24-well plate) in 0.5 ml of AIM-V. Ad5 vectors were used at 20,000 MOI for 1 hour and then 1.5 ml of AIM-V were added to each well. Infected DCs were incubated for 48 hours and then washed and used for stimulation of human antigen-specific T cells. Results are expressed in pg of IFN-γ per 5×10^5 T cells/ml. DC only=<0.73 pg/ml.

[4] = tested on: HN-4 head and neck squamous carcinoma cell line (HLA-A2 positive); assay: Lysis of HN-4 cells by peptide-specific CTLs; type: cell-based, human; conditions: for % specific lysis (SD), HN-4: CTLs at IVS5, effector-to-target ratio 25:1; for lysis of HN-4 (in words): compared to native counterparts
Excerpt: as §1, §3

[5] = tested on: HN-12 head and neck squamous carcinoma cell line (HLA-A2 positive); assay: Lysis of HN-12 cells by peptide-specific CTLs; type: cell-based, human; conditions: for % specific lysis (SD), HN-12: CTLs at IVS5, effector-to-target ratio 25:1; for lysis of HN-12 (in words): compared to native counterparts
Excerpt: as §1, §3

[6] = CTL line stimulated by autologous B cells pulsed with corresponding HPV-16 E6 peptide
[7] = E6 CTL line, autologous B cells with NO peptide
[8] = level compared with the native epitope
[9] = DCs infected with Ad5 [E1,E2b]-HPV (20,000 MOI)
[10] = DCs infected with Ad5 [E1,E2b]-Null (20,000 MOI)
[11] = CTL line stimulated by autologous B cells pulsed with corresponding HPV-16 E7 peptide
[12] = E7 CTL line, autologous B cells with NO peptide

Sequence	IFN-γ (CTL (T cells); [6])	IFN-γ (CTL (T cells); [7])	% specific lysis (SD), CaSki (HLA-A2+ HPV E6+ and E7+) [1]	% specific lysis (SD), ASPC-1 (HLA-A2neg HPV E6neg and E7neg) [2]	Lysis [1]	T2A2 Binding (HLA-A2 molecules; binding to HLA-A2)	IFN-γ [3, 9]	IFN-γ [3, 10]	IFN-γ ([3]; DCs only (uninfected))	IFN-γ ([3]; No DCs)	% specific lysis (SD), HN-4 [4]	% specific lysis (SD), HN-12 [5]	% specific lysis (SD), ASPC-1 [2]	IFN-γ (CTL (T cells); [11])	IFN-γ (CTL (T cells); [12])	other results
KISEYRHYC [E6-2, reference compound]	455 pg/mL	<15.6 pg/mL	45.1 (2.8) %	0.5 (0.7) %												
KISEYRHYV [E6-A2]	172 pg/mL	<15.6 pg/mL	24.2 (1.2) %	0.2 (0.5) %	−	877										interferon production (in words) (CTL (T cells)): produced more interferon than the agonist counterpart; IFN-γ (CTL (T cells); [8]): −
KLPQLCTEL [E6-1, reference compound]	264 pg/mL	<15.6 pg/mL	34.1 (3.6) %	2.4 (0.6) %			114 pg of IFN-γ per 5×10^5 T cells/ml	<0.73 pg of IFN-γ per 5×10^5 T cells/ml	2.17 pg of IFN-γ per 5×10^5 T cells/ml	<0.73 pg of IFN-γ per 5×10^5 T cells/ml	21.2 (4.4) %	16.5 (1.7) %	0.3 (0.9) %			T2A2 Binding (HLA-A2 molecules): 853
KLPQLCTEV [E6-A1]	699 pg/mL	<15.6 pg/mL	70.8 (10.7) %	-0.2 (6.6) %		1,335	683 pg of IFN-γ per 5×10^5 T cells/ml	1.0 pg of IFN-γ per 5×10^5 T cells/ml	<0.73 pg of IFN-γ per 5×10^5 T cells/ml	0.89 pg of IFN-γ per 5×10^5 T cells/ml	46.2 (1.1) %	49.4 (3.1) %	0.2 (0.9) %			activation of T cells directed against the epitope (in words) [3]: able to activate; lysis of HN-4 (in words) [4]: more lysis; interferon production (in words) (CTL (T cells)): best interferon production; lysis of CaSki cervical carcinoma cells (in words) [1]: Enhanced lysis; lysis of HN-12 (in words) [5]: more lysis; HLA-A2 binding (in words) (HLA-A2 molecules): strongest
QLYNKPLCDV [E6-A3]	653 pg/mL	<15.6 pg/mL	49.1 (11.9) %	0.3 (0.9) %	+	1,280	452 pg of IFN-γ per 5×10^5 T cells/ml	0.78 pg of IFN-γ per 5×10^5 T cells/ml	8.06 pg of IFN-γ per 5×10^5 T cells/ml	0.9 pg of IFN-γ per 5×10^5 T cells/ml	30.6 (5.3) %	38.4 (7.5) %	0.5 (0.8) %			activation of T cells directed against the epitope (in words) [3]: able to activate; lysis of HN-4 (in words) [4]: more lysis; lysis of CaSki cervical carcinoma cells (in words) [1]: Enhanced lysis; lysis of HN-12 (in words) [5]: more lysis; A2 Binding (HLA-A2 molecules; [8]): +
QQYNKPLCDL [E6-3, reference compound]	338 pg/mL	121 pg/mL	38.1 (3.3) %	0.6 (0.2) %		1,020	135 pg of IFN-γ per 5×10^5 T cells/ml	58.5 pg of IFN-γ per 5×10^5 T cells/ml	<0.73 pg of IFN-γ per 5×10^5 T cells/ml	<0.73 pg of IFN-γ per 5×10^5 T cells/ml	7.0 (0.4) %	10.2 (3.8) %	-1.1 (0.7) %			
RTLEDLLMGT [E7-3, reference compound]			49.6 (8.7) %	0.5 (0.1) %			560 pg of IFN-γ per 5×10^5 T cells/ml	70.8 pg of IFN-γ per 5×10^5 T cells/ml	4.24 pg of IFN-γ per 5×10^5 T cells/ml	<0.73 pg of IFN-γ per 5×10^5 T cells/ml	25.8 (3.5) %	34.6 (3.9) %	1.1 (0.7) %	338 pg/mL	<15.6 pg/mL	
TLHEYMLDL [E7-2, reference compound]			59.2 (5.3) %	0.1 (1.0) %										475 pg/mL	95.6 pg/mL	
TLHEYMLDV [E7-A2]			41.9 (4.1) %	0.6 (1.3) %	−	1,529								95.3 pg/mL	<15.6 pg/mL	interferon production (in words) (CTL (T cells)): low and produced more interferon than the agonist counterpart; IFN-γ (CTL (T cells); [8]): −; HLA-A2 binding (in words) (HLA-A2 molecules): strongest; also recorded: good binding
YMLDLQPET [E7-1, reference compound]			39.8 (1.7) %	0.4 (0.3) %		1,105								247 pg/mL	155.6 pg/mL	
YMLDLQPEV [E7-A1]			27.8 (3.6) %	0.9 (0.6) %	−	1,171								230 pg/mL	<15.6 pg/mL	IFN-γ (CTL (T cells); [8]): =
